Data: paper PMC5618406, “New Marine Antifouling Compounds from the Red Alga Laurencia sp” (Marine Drugs, 2017)
Where two headings read alike, the source gives them in different places.

Assays:
[1] = Antifouling assay against barnacle larvae; type: in vivo; details: Amphibalanus amphitrite (barnacle), in vivo, barnacle larvae
Protocol: (§1) An antifouling assay against larvae of the barnacle Amphibalanus amphitrite was conducted according to the previous literature. The antifouling assay against diatoms Nitzschia sp. and Cylindrotheca closterium was conducted as follows. The diatoms were maintained in test tubes under 16 h light and 8 h dark cycle conditions at 25 °C in modified Jorgensen’s medium. Pure compounds were applied to a sample zone (16 mm in diameter) of cellulose TLC aluminum sheet (58 × 58 mm), and then each treated sheet was placed in Petri dish (15 × 90 mm in diameter). After that, 25-mL aliquots of modified Jorgensen’s medium were introduced into Petri dishes with treated sheets, and inoculated with 1 mL of cultivated diatom suspension in equivalent cell densities. Petri dishes were sealed with Parafilm to ensure a closed system, and were incubated under the same conditions. Cell growth was estimated daily, and the adhesive condition was evaluated and compared to those of the control after seven days of incubation.

[2] = tested on: larvae of the barnacle Amphibalanus amphitrite; experiment: Antifouling assay against barnacle larvae; type: in vivo; details: for toxicity to larvae: at 10 µg/mL
Protocol: as §1

Nitzschia sp. = experiment: Antifouling (anti-diatom) assay on treated cellulose TLC sheet; type: cell-based; details: at 5–10 µg/cm^2, seven days of incubation
Protocol: as §1

Cylindrotheca closterium = experiment: as above; type: cell-based; details: at 5–10 µg/cm^2, seven days of incubation
Protocol: as §1

[3] = Table 4, dash entries, read-out: LC50
[4] = values in text, read-out: toxicity LC50
[5] = Amphibalanus amphitrite, barnacle larvae, Table 4, read-out: EC50
[6] = Amphibalanus amphitrite, barnacle larvae, values in text, read-out: antifouling activity EC50
[7] = barnacle larvae, values in text
[8] = Amphibalanus amphitrite, barnacle larvae, Table 4, dash entries, read-out: EC50

SMILES: CC1(C)[C@]23C[C@H](Br)[C@@](C)(Cl)C[C@@H]2O[C@@]1(Br)C=C[C@@]3(C)O [Compound 13, pacifenol]
- LC50 [1, 3]: > 10 µg/mL
- LC50 [1, 4]: > 10 µg/mL
- EC50 [2, 5]: 5500 nM
- EC50 [2, 6]: 2.36 µg/mL

SMILES: Cc1ccc([C@]2(C)CC[C@@H]3C[C@@]32C)c(O)c1 [Compound 10, debromolaurinterol]
- LC50 [1, 3]: > 10 µg/mL
- LC50 [1, 4]: > 10 µg/mL
- EC50 [2, 5]: 2300 nM
- EC50 [2, 6]: 0.5 µg/mL

SMILES: O=S(=O)([O-])[O-].[Cu+2] [CuSO4, reference compound]
- LC50 ([2]; barnacle larvae, Table 4): 1400 nM
- EC50 ([2]; barnacle larvae, Table 4, read-out: EC50): 720 nM
- antifouling activity EC50 [2, 7]: 0.18 µg/mL

SMILES: Cc1ccc([C@]2(C)CC[C@@H](Br)C2(C)C)cc1 [Compound 11, α-bromocuparene]
- LC50 [1, 3]: > 10 µg/mL
- EC50 [2, 8]: > 10 µg/mL
- antifouling activity ([2]; barnacle larvae, result in words): inactive

SMILES: Cc1cc(O)c([C@]2(C)CC[C@@H]3C[C@@]32C)cc1Br [Compound 8, laurinterol]
- LC50 ([1]; Table 4, read-out: LC50): 20000 nM
- LC50 [1, 4]: 5.8 µg/mL
- EC50 [2, 5]: 2200 nM
- EC50 [2, 6]: 0.65 µg/mL

SMILES: CC1=C(/C=C/C(C)=C/CC/C(C)=C/CO)C(C)(C)CC(O)C1 (centres unmarked) [Compound 6, 11,12-dihydro-3-hydroxyretinol]
- anti-diatom activity (Nitzschia sp.): showed inhibition
- anti-diatom activity (Cylindrotheca closterium): showed inhibition

SMILES: CC(C)=CCCC(C)C1(O)CCC2(C)C(Br)CCC(C)(O)C2C1 (centres unmarked) [Compound 1, omaezol]
- LC50 ([1]; Table 4, read-out: LC50): 9600 nM
- LC50 [1, 4]: 3.7 µg/mL
- EC50 [2, 5]: 590 nM
- EC50 [2, 6]: 0.15 to 0.23 µg/mL
- antifouling activity EC50 [2, 7]: 0.23 µg/mL

SMILES: CC(C)(Cl)C(Br)CCC(C)(O)C1CCC(C)(C(O)CCC2OC3(C(C)(O)CCC(Br)C(C)(C)Cl)CCC2(C)O3)O1 (centres unmarked) [Compound 2, intricatriol]
- LC50 [1, 3]: > 10 µg/mL
- EC50 [2, 8]: > 10 µg/mL
- EC50 [2, 6]: > 10 µg/mL

SMILES: CC[C@@H]1[C@@H]2[C@H]3OC(C=C=CBr)C[C@H]3O[C@]2(O)[C@@H](Br)C[C@H]1Br (relative stereo) [Compound 3, hachijojimallene A]
- LC50 ([1]; Table 4, read-out: LC50): 20000 nM
- LC50 [1, 4]: 9.8 µg/mL
- EC50 [2, 5]: 310 nM
- EC50 [2, 6]: 0.15 to 0.23 µg/mL
- antifouling activity EC50 [2, 7]: 0.15 µg/mL

SMILES: CC[C@@H]1[C@@H]2[C@H]3OC(C=C=CBr)C[C@H]3O[C@@]23O[C@@H]1C[C@@H]3Br (relative stereo) [Compound 4, hachijojimallene B]
- LC50 ([1]; Table 4, read-out: LC50): 17000 nM
- LC50 [1, 4]: 6.8 µg/mL
- EC50 [2, 5]: 760 nM
- EC50 [2, 6]: 0.31 µg/mL

SMILES: C=C1[C@@H](C)CC[C@@]1(C)c1cc(Br)c(C)cc1O [Compound 9, isolaurinterol]
- LC50 [1, 3]: > 10 µg/mL
- LC50 [1, 4]: > 10 µg/mL
- EC50 [2, 5]: 1200 nM
- EC50 [2, 6]: 0.34 µg/mL

SMILES: Cc1ccc2c(c1)O[C@@]1(C=O)[C@@H](C)CC[C@@]21C [Compound 5, debromoaplysinal]
- LC50 [1, 3]: > 10 µg/mL
- EC50 [2, 5]: 4300 nM
- EC50 [2, 6]: 1 µg/mL
- toxicity to larvae [2]: did not kill any larvae

SMILES: CC1=C[C@H](O)[C@@H](Br)C(C)(C)[C@]12CC[C@](C)(Cl)[C@@H](Br)C2 [Compound 14, 2,10-dibromo-3-chloro-9-hydroxy-α-chamigrene]
- LC50 [1, 3]: > 10 µg/mL
- LC50 [1, 4]: > 10 µg/mL
- EC50 [2, 5]: 6100 nM
- EC50 [2, 6]: 2.51 µg/mL
- anti-diatom activity (Nitzschia sp.): showed inhibition
- anti-diatom activity (Cylindrotheca closterium): showed inhibition

SMILES: CC1(C)C(Br)=C[C@H]2O[C@@]2(C)[C@]12C[C@H](Br)[C@@](C)(Cl)C[C@@H]2O [Compound 12, prepacifenol]
- LC50 [1, 3]: > 10 µg/mL
- LC50 [1, 4]: > 10 µg/mL
- EC50 [2, 5]: 1500 nM
- EC50 [2, 6]: 0.63 µg/mL
- anti-diatom activity (Nitzschia sp.): showed inhibition
- anti-diatom activity (Cylindrotheca closterium): showed inhibition

SMILES: Cn1c(Br)c(Br)c2ccc(Br)cc21 [N-methyl-2,3,6-tribromoindole]
- EC50 [2, 6]: 4.3 µg/mL
- toxicity to larvae [2]: not toxic
